Source: US9981959B2, “Thiazolyl and oxazolyl urea, thiourea, guanidine and cyanoguanidine compounds as TrkA kinase inhibitors” (Array BioPharma Inc., priority 2012, dated 2018)

Target: TrkA (Homo sapiens, UniProt P04629)
Assay: TrkA LanthaScreen Eu Kinase Binding Assay
Design: 6HIS tagged cytoplasmic domain from Invitrogen, Cat. No. PV3144; purchased Invitrogen PV3144
Details: averaged IC50; TR-FRET binding, 60 min, 22° C.; read-out: TrkA enzyme IC50
Protocol: TrkA binding activity was determined in a TrkA LanthaScreen™ Eu Kinase Binding Assay. 5 nM His-tagged recombinant human TrkA (6HIS tagged cytoplasmic domain from Invitrogen, Cat. No. PV3144) was incubated with 4 nM Alexa-Fluor® Tracer 236 (Invitrogen Cat. No. PV5592), 2 nM biotinylated anti-His (Invitrogen Cat. No. PV6090), and 2 nM europium-labeled Streptavidin (Invitrogen Cat. No. PV5899), in buffer (25 mM MOPS, pH 7.5, 5 mM MgCl2, 0.005% Triton X-100). Three fold serial dilutions of compounds of the invention in DMSO were added to a final percentage of 2% DMSO. After 60-minute incubation at 22° C., the reaction was measured using the EnVision mutlimode plate reader (PerkinElmer) via TR-FRET dual wavelength detection at […]. The percent of control was calculated using a ratiometric emission factor. The IC50 values were determined by fitting a four parameter model to the percent of control data.
Table A provides averaged IC50 values for compounds of the invention when tested in the assay of Example A, where A represents an averaged IC50 value <100 nM; and B represents an averaged IC50 value from 100 to 1,000 nM.

Chain of TrkA (P04629 440-796 limits assumed): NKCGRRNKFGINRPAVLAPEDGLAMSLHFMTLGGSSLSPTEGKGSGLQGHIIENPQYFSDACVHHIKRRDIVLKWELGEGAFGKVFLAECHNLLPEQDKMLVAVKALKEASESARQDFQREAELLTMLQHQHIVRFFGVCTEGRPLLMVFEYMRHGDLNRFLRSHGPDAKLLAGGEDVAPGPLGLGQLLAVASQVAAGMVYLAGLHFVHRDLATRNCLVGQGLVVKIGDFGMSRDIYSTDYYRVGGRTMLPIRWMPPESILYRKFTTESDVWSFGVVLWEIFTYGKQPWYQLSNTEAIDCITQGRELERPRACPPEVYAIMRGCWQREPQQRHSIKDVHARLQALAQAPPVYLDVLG

Q: `Cc1nc(-c2ccccc2)c(NC(=O)Nc2c(C)c(-c3cnn(C)c3)nn2-c2ccccc2)s1` [Example 1, 1-(1′,4-dimethyl-1-phenyl-1H,1′H-[3,4′-bipyrazol]-5-yl)-3-(2-methyl-4-phenylthiazol-5-yl)urea] was tested. Which IC50 did it give?
A: The IC50 was < 100 nM.

Q: How did the IC50 turn out when `Cc1nc(-c2ccccc2)c(NC(=O)Nc2c(C)c(-c3cnn(C)c3)nn2-c2ccccc2)o1` [Example 3, 1-(1′,4-dimethyl-1-phenyl-1H, 1′H-[3,4′-bipyrazol]-5-yl)-3-(2-methyl-4-phenyloxazol-5-yl)urea] was run?
A: Its IC50 is 100 to 1000 nM.

Q: For `Cc1c(C(N)=O)nn(-c2ccccc2)c1NC(=O)Nc1sc(C(F)(F)F)nc1-c1ccccc1` [Example 4, 4-methyl-1-phenyl-5-(3-(4-phenyl-2-(trifluoromethyl)thiazol-5-yl)ureido)-1H-pyrazole-3-carboxamide], which IC50 is on record?
A: The IC50 was 100 to 1000 nM.

Q: `Cc1c(OCCO)nn(-c2ccccc2)c1NC(=O)Nc1sc(C(F)(F)F)nc1-c1ccccc1` [Example 5, 1-(3-(2-hydroxyethoxy)-4-methyl-1-phenyl-1H-pyrazol-5-yl)-3-(4-phenyl-2-(trifluoromethyl)thiazol-5-yl)urea] was tested. Which IC50 did it give?
A: The IC50 was < 100 nM.
